Assay type in all cases: biochemical
In assay [1] the target is T1, Cl^- s (Homo sapiens, UniProt P09871).
T1 construct: Cl^- s^e
T1 sequence (P09871 438-688 limits assumed): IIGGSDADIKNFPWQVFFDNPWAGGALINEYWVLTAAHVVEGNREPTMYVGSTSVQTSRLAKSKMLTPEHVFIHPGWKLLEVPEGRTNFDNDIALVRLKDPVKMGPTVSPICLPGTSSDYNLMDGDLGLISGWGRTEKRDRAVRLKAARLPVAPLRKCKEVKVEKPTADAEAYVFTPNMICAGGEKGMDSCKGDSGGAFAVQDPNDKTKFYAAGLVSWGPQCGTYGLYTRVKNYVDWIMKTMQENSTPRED
T1 sequence (P09871 16-437 partner limits assumed): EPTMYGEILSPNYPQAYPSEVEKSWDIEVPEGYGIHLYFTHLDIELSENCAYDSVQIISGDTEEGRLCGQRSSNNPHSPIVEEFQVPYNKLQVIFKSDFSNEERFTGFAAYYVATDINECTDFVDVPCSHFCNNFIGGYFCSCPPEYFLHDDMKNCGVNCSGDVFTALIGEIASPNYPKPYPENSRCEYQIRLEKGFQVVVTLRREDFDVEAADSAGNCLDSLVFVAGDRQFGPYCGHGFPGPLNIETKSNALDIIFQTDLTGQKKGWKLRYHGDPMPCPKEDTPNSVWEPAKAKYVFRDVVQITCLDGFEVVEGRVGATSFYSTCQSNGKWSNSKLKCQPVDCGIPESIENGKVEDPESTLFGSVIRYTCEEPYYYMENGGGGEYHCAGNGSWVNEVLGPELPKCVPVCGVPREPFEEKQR
Nature of the assay: Inactivation rate of complement protein C1s. The conditions noted are these: Table II; pH 7.5, 25° C; [I] 0.8 to 44 μM; read-out: kobs/[I]. As to the method:
Inactivation rates of serine proteases by substituted isocoumarins were measured by the incubation method. An aliquot of inhibitor (25 or 50 μl) in Me2 SO was added to a buffered enzyme solution (0.01-2.3 μM) to initiate the inactivation. Aliquots (50 μl) were withdrawn at various intervals and the residual enzymatic activity was measured. Me2 SO concentration in the reaction mixture was 8-12% (v/v). 0.1 Hepes, 0.01M CaCl2, pH 7.5 buffer was utilized for trypsin and coagulation enzymes. 0.1M Hepes, 0.5M NaCl, pH 7.5 was utilized for other serine proteases. The inhibitor concentrations are shown in all the tables. Peptide thioesters or peptide nitroanilides with appropriate sequence were used as substrates for various serine proteases. All peptide thioester hydrolysis rates were measured with assay mixtures containing 4,4'-dithiodipyridine (ε324 =19800M^-1 cm^-1; Grasetti & Murray, Arch. Biochem. Biophys. 119, pp 41-49 (1967)). Peptide 4-nitroanilide nitroanilide hydrolysis was measured at 410 nm (ε410 =8800M^-1 cm^-1; Erlanger et al., Arch. Biochem. Biophys. 95, pp 271-278 (1961)). First order inactivation rate constant (kobs) were obtained from plots of ln (vt /vo) vs time, and the correlation coefficients were greater than 0.98.
^a Conditions were 0.1M Hepes, 0.5M NaCl, pH 7.5, 8-10% Me2 SO
and 25° C. Inactivation rates were measured by incubation method.
Enzyme concentrations were as follows: protein D, 1-9 μM; C2, 0.7-1
μM; B, 1.8 μM; Bb, 0.3-0.8 μM; Cl^- s, 0.07 μM; Cl^-

The target of assay [2] is sheep lung lymph tryptase. The assay is described as follows: Inactivation rate of sheep lung lymph tryptase. As to conditions: Table III; pH 7.5, 25° C; [I] 10 to 460 μM. As to the method:
Inactivation rates of serine proteases by substituted isocoumarins were measured by the incubation method. An aliquot of inhibitor (25 or 50 μl) in Me2 SO was added to a buffered enzyme solution (0.01-2.3 μM) to initiate the inactivation. Aliquots (50 μl) were withdrawn at various intervals and the residual enzymatic activity was measured. […] 0.1 Hepes, 0.01M CaCl2, pH 7.5 buffer was utilized for trypsin and coagulation enzymes. […] The inhibitor concentrations are shown in all the tables. Peptide thioesters or peptide nitroanilides with appropriate sequence were used as substrates for various serine proteases.
^a Inactivation rates were measured at 0.1M Hepes, 0.5M NaCl, pH 7.5
buffer, 8% Me2 SO and 25° C.

The target of assay [3] is T2, human factor XIIa (Homo sapiens, UniProt P00748).
T2 construct: human factor XIIa
T2 sequence (P00748 373-615 limits assumed): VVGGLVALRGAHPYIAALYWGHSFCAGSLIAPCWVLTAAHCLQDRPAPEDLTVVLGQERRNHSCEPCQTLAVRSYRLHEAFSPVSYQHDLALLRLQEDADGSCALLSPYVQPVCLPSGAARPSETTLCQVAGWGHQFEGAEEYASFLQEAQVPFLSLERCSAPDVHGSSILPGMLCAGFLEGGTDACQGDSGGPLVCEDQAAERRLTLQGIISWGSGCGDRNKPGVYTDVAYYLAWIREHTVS
T2 sequence (P00748 20-372 partner limits assumed): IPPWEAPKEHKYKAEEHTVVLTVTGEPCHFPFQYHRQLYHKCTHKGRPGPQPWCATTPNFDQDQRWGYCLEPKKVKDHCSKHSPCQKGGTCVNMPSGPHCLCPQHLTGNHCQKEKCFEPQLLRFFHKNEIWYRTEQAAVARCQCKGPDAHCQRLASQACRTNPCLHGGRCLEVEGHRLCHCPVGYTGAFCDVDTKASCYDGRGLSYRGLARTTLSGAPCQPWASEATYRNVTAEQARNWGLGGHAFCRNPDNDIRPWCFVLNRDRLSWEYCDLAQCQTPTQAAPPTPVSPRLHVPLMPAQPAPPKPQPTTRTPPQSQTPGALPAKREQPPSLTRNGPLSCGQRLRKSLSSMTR
Nature of the assay: Inactivation rate of human factor XIIa. The conditions noted are these: pH 7.5, 25° C, read-out: kobs/[I]. In outline: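 Incubation method: isocoumarin in Me2SO added to enzyme (0.01-2.3 μM) in 0.1M Hepes, 0.01M CaCl2, pH 7.5, 8-12% Me2SO, 25° C. Residual activity sampled over time with peptide thioester (4,4'-dithiodipyridine) or 4-nitroanilide (410 nm) substrates. kobs taken from ln(vt/vo) vs time.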

In assay [4] the target is T3, porcine pancreatic elastase (PPE) (Sus scrofa, UniProt P00772).
T3 construct: from tissue; host or cells: porcine pancreas (from the name)
T3 sequence (P00772 27-266): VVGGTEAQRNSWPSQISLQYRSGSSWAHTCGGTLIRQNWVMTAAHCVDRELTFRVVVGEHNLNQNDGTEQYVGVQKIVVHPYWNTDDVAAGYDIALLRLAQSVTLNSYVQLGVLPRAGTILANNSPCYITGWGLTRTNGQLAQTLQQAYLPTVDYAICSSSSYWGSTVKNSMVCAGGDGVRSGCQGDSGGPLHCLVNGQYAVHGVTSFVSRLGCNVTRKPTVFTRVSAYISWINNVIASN
Nature of the assay: Inactivation of porcine pancreatic elastase (PPE). The conditions noted are these: pH 7.5, 25° C, read-out: kobs/[I].

The record followed here is patent publication US5324648A, “Substituted isocoumarins as serine protease inhibitors and anti-inflammatory agents” (Georgia Tech Research Corporation, priority 1992, dated 1994).

Like-named read-outs stand apart in the source and are kept apart here.

Turning to `O=c1oc(Cl)c(Cl)c2ccccc12` [3,4-dichloroisocoumarin, reference compound], the kinact/KI in assay [1] is 170 M⁻¹ s⁻¹. In assay [2], the “kobs/[I]” value came to 39 M⁻¹ s⁻¹.
Turning to `N=C(N)SCCOc1oc(=O)c2ccccc2c1Cl` [3-(2-isothiureidoethoxy)-4-chloroisocoumarin], the kinact/KI worked out at 39000 M⁻¹ s⁻¹ in assay [3] (Table I, [I] 3 to 330 μM) and 270 M⁻¹ s⁻¹ in assay [4] (Table IV, [I] 0.01 to 0.51 mM). For the same compound, the “kobs/[I]” value in assay [2] is 290 M⁻¹ s⁻¹.
Take `NCCCOc1oc(=O)c2ccccc2c1Cl` [3-(3-aminopropoxy)-4-chloroisocoumarin]: the kinact/KI stood at 190 M⁻¹ s⁻¹ in assay [3] (Table I, [I] 3 to 330 μM) and 70 M⁻¹ s⁻¹ in assay [4] (Table IV, [I] 0.01 to 0.51 mM). In addition, the “kobs/[I]” value in assay [2] worked out at 18 M⁻¹ s⁻¹.
With `N=C(N)SCCCOc1oc(=O)c2ccccc2c1Cl` [3-(3-isothiureidopropoxy)-4-chloroisocoumarin], the kinact/KI in assay [1] was determined as 130000 M⁻¹ s⁻¹; in assay [3] (Table I, [I] 3 to 330 μM), 27000 M⁻¹ s⁻¹; in assay [4] (Table IV, [I] 0.01 to 0.51 mM), 70 M⁻¹ s⁻¹. The “kobs/[I]” value in assay [2] came out at 230 M⁻¹ s⁻¹.
The like results for `N=C(N)SCCCOc1oc(=O)c2cc(N)ccc2c1Cl` [7-amino-4-chloro-3-(3-isothiureidopropoxy)isocoumarin] were, in that order, 23000 M⁻¹ s⁻¹, 6200 M⁻¹ s⁻¹, 1 M⁻¹ s⁻¹ and 710 M⁻¹ s⁻¹.
The like results for `CCOc1oc(=O)c2cc(NC(=N)N)ccc2c1Cl` [7-guanidino-3-ethoxy-4-chloroisocoumarin, 7-guanidino-4-chloro-3-ethoxyisocoumarin] were, in that order, 690 M⁻¹ s⁻¹, 22000 M⁻¹ s⁻¹, 2300 M⁻¹ s⁻¹ and 2,200 M^-1 s^-1.
In the case of `COc1cc2ccc(NC(=N)N)cc2c(=O)o1` [7-guanidino-3-methoxyisocoumarin], the kinact/KI in assay [3] (Table I, [I] 3 to 330 μM) was 520 M⁻¹ s⁻¹; in assay [4] (Table IV, [I] 0.01 to 0.51 mM) it was 55 M⁻¹ s⁻¹. Moreover, the “kobs/[I]” value in assay [2] came to 53 M⁻¹ s⁻¹.
`N=C(N)Nc1ccc2c(Cl)c(OCCc3ccccc3)oc(=O)c2c1` [7-guanidino-4-chloro-3-(2-phenylethoxy)isocoumarin]: the kinact/KI in assay [1] was found to be 90 M⁻¹ s⁻¹; in assay [3] (Table I, [I] 3 to 330 μM), 26000 M⁻¹ s⁻¹; in assay [4] (Table IV, [I] 0.01 to 0.51 mM), 5.7 M⁻¹ s⁻¹. Moreover, the “kobs/[I]” value in assay [2] is 3,900 M^-1 s^-1.
Turning to `COc1oc(=O)c2cc(NC(=N)N)ccc2c1Cl` [7-guanidino-4-chloro-3-methoxyisocoumarin], the kinact/KI in assay [1] was found to be 660 M⁻¹ s⁻¹; in assay [3] (Table I, [I] 3 to 330 μM) it was 20000 M⁻¹ s⁻¹; in assay [4] (Table IV, [I] 0.01 to 0.51 mM) it was 860 M⁻¹ s⁻¹. Besides, the “kobs/[I]” value in assay [2] was 620 M⁻¹ s⁻¹.
Turning to `N=C(N)SCCOc1oc(=O)c2cc(NC(=O)Nc3ccccc3)ccc2c1Cl` [PhNHCONH-CiTEtOIC, 7-(phenylcarbamoylamino)-4-chloro-3-(2-isothiureidoethoxy)isocoumarin], the kinact/KI in assay [3] (Table VIII, [I] 3.6-4.9 μM) amounted to 50000 M⁻¹ s⁻¹; in assay [4] (Table X, [I] 33-46 μM) it was 840 M⁻¹ s⁻¹.
